In ChEMBL document CHEMBL1126913, “A homologous series of permanently charged 1,4-dihydropyridines: novel probes designed to localize drug binding sites on ion channels” (J Med Chem, 1993) one finds Ki data, which are given here for two compounds.

The target in this experiment is Voltage-dependent L-type calcium channel subunit alpha-1C (Rattus norvegicus, UniProt P22002). Nature of the experiment: Inhibition of [3H](+)-PN200-110 binding to L-type calcium channel 1,4-DHP binding site of rat ventricular myocytes. The format is cell-based, Ventricular myocyte.
Chain of Voltage-dependent L-type calcium channel subunit alpha-1C (P22002 whole entry): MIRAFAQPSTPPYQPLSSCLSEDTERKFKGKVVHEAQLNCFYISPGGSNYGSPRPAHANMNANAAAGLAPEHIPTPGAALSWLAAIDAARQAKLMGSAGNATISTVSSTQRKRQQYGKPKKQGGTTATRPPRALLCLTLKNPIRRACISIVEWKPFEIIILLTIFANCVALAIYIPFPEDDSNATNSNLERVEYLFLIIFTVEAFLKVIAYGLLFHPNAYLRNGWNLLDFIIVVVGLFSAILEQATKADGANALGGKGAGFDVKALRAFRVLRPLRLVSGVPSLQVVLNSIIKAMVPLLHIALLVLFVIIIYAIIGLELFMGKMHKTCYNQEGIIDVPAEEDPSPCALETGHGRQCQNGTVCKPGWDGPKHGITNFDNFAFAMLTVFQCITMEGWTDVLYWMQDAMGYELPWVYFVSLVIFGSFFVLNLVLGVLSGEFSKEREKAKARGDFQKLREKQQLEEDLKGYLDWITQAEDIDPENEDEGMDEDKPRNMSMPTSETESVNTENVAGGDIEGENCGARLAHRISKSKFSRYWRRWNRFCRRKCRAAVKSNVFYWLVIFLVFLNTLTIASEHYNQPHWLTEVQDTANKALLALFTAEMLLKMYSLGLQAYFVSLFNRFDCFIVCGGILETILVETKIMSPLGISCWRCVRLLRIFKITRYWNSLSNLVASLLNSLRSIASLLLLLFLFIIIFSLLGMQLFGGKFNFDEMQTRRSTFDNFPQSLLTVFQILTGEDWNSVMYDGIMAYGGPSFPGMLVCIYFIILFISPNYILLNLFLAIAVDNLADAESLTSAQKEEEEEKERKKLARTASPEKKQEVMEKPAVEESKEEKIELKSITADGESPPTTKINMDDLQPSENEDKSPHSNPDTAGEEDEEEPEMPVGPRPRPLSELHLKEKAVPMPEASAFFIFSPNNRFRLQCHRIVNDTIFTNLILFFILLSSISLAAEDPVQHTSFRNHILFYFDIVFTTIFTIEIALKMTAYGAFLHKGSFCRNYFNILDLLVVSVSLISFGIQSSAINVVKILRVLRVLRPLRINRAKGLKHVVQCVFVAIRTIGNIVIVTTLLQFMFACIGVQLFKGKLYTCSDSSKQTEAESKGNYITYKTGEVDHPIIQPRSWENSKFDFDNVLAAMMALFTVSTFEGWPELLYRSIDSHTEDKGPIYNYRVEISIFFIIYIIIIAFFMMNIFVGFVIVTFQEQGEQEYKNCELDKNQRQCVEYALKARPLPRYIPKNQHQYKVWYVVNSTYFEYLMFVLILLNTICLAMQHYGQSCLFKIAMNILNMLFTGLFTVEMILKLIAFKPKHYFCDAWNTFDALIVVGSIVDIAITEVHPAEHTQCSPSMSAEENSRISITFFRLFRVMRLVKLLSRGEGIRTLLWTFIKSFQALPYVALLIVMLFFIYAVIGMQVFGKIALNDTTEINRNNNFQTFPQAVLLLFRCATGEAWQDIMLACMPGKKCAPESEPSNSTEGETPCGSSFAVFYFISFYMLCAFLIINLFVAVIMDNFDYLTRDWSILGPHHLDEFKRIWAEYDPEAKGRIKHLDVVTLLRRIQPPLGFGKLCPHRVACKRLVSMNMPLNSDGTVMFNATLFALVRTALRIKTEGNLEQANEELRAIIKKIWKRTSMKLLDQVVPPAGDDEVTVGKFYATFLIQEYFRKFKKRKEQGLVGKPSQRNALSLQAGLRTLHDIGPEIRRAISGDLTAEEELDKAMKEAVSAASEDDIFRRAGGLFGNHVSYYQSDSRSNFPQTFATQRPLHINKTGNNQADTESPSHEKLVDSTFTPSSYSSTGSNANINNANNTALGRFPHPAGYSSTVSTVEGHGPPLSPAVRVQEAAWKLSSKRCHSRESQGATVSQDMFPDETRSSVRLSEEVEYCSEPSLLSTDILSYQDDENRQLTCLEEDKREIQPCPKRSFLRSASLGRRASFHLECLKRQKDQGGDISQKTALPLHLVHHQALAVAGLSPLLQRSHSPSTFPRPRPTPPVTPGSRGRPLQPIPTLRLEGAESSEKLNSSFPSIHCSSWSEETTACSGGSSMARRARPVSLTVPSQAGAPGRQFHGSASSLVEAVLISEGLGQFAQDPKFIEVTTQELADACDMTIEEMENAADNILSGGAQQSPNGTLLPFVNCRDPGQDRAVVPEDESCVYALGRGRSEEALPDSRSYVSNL

What is called Ki is the dissociation constant of the complex between target and ligand, obtained from inhibition or displacement. As to `COC(=O)C1=C(C)NC(C)=C(C(=O)OCC[N+](C)(C)C)C1c1ccccc1C(F)(F)F` (configuration not stated), the Ki turned out to be 0.0332 µM.
`CCCCCCCCCCCCCCOC(=O)C1=C(C)NC(C)=C(C(=O)OC)C1c1ccccc1C(F)(F)F` (configuration not stated): the Ki was 0.0157 µM.
